Reference: patent US20120202891A1, “Cannabinoid-Containing Compositions and Methods for Their Use” (UNIVERSITY OF KENTUCKY RESEARCH FOUNDATION, priority 2009, published 2012)
“And” between values parts separate entries of the source, which are not always exact repeats. Identical values can stand only once. “Also recorded” adds a separate entry of the source. Like-named read-outs stand apart in the source and are kept apart here. Marks after values point to notes of the source that are not given here.

Tests used:
normal (non-CFA) rats = test: Open field exploratory behavioral activity; format: in vivo, rat; conditions: 0.6 to 62.3 mg/d, pre-dose versus post-dose and among dose groups
Description: Exploratory behavioral activity of the rats was monitored using the Flexfield Animal Activity System (San Diego Instruments; San Diego, Calif.) with a Photobeam Activity System software coupled to a computer according to previously published methods by Zhang et al., (2004) Pharmacol Biochem Behav 77: 145-153. Briefly, six main parameters were recorded: rearing events and rearing time, active time and resting time, total activity (i.e. number of photobeams disturbed in the x-y-z planes while the rat was moving around in the box or involved in stationary movement such as grooming), and distance traveled. Activity testing was conducted in an isolated, temperature controlled area at similar times daily in order to provide consistent results.
(§1) Baseline parameters (body weight, knee joint temperature, and knee joint circumference) were obtained before the knee injection of rats with CFA. PWL test and exploratory activity testing were also conducted prior to CFA injection. Rats were anesthetized with a short term anesthetic and the left knee joint cavity was injected with CFA for induction of mono-arthritis. […] Exploratory activity was monitored prior to initial gel application and on the third day post gel application (after 6 h). […] Blood samples were obtained for CBD plasma quantification, and tissues (knee joints, dorsal root ganglia, spinal cord, brain) were collected after perfusion. […]

normal rats = test: Paw withdrawal latency (PWL) test, normal rats; format: in vivo, rat; conditions: any CBD dose (0.6, 3.1, 6.2 mg/d)
Description: Secondary thermal hyperalgesia was assessed with the paw withdrawal latency (PWL) test (Hargreaves et al. (1988) Pain 32: 77-88). PWLs were measured in response to a radiant heat source shone on one hind paw of the animals from beneath a glass top table. A shortened PWL response in animals with knee joint inflammation was indicative of secondary thermal hyperalgesia. Animals were placed in separate plastic cubicles (4×4×10 in) on a glass top table (2 mm thickness of glass) and allowed to adapt to their new environment for 20-30 min before testing. A small movable metal box that focused a high-intensity light beam through an aperture (0.5 cm×0.5 cm) was attached to an on/off switch and a digital timer. […] At that time, the light is switched off and the number of seconds on the digital timer recorded as the PWL (sec). […] A mean of the 5 trials was calculated for each animal. […]
as §1, with “CFA.” for “CFA. PWL test and exploratory activity testing were also conducted prior to CFA injection. Rats were anesthetized with a short term anesthetic and the left knee joint cavity was injected with CFA for induction of mono-arthritis.”

[1] = Plasma CBD concentration after topical gel application (LC/MS); format: in vivo, rat; conditions: plasma concentration versus dose, 0.6, 3.1 and 6.2 mg/d
Description: as §1, with “mono-arthritis. On day 3, the back of each animal was shaved. […] Rats received daily treatments for four consecutive days of either vehicle gel, or CBD gel. Gel was applied to the skin in a templated region on the dorsal surface of the rat and rubbed into the skin for 30 sec to ensure complete coverage. The nitrile template was used to ensure specific area reproducibility.” for “mono-arthritis.”
The LC/MS system used to analyze samples was comprised of a Waters Alliance 2695 pump and autosampler, a Micromass™ ZQ detector, and 996 photodiode array detector with MassLynx™ software (Waters Corp., Milford, Mass.). […] The ZQ detector was used with an electrospray ionization (ESI) probe set for single ion monitoring (SIM) for cannabidiol quantification. […]

[2] = cited from earlier work
[3] = test system: CFA mono-arthritic knee joints in Sprague-Dawley rats; test: Knee joint temperature in CFA-induced monoarthritis; format: in vivo, rat; conditions: for Knee joint temperature: Post-CBD, four consecutive days (day 4), mean ± SD
CB2 = CB2 (Homo sapiens, UniProt P34972); conditions: cited from earlier work
[4] = test system: rats with CFA induced mono-arthritis; test: Secondary thermal hyperalgesia, paw withdrawal latency (PWL) test, CFA rats; format: in vivo, rat
[5] = hairless guinea pigs, 1% hydroalcoholic CBD gel, up to 8 h post application; cited from earlier work
[6] = test system: CFA mono-arthritic knee joints in Sprague-Dawley rats; test: Knee joint circumference in CFA-induced monoarthritis; format: in vivo, rat; conditions: Post-CBD, four consecutive days (day 4), mean ± SD

Sequence of CB2 (P34972 whole entry, species assumed): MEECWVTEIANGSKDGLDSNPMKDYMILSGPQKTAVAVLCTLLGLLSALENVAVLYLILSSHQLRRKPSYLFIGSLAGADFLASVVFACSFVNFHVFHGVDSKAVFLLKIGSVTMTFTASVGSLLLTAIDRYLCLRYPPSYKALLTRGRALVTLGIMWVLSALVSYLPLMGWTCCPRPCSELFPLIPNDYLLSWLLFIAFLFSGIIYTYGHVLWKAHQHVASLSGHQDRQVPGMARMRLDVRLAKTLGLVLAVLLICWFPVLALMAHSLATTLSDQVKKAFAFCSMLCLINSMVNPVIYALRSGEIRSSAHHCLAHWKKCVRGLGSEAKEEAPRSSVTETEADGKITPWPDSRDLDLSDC

C=C(C)C1CCC(C)=CC1c1c(O)cc(CCCCC)cc1O (stereo not drawn) [CBD, 2-[3-methyl-6-(1-methylethenyl)-2-cyclohexen-1-yl]-5-pentyl-1,3-benzenedi-ol]
Exploratory activities, six parameters (rearing events, rearing time, total beams broken, distance traveled, active time, resting time), differences (normal (non-CFA) rats): No significant (p>0.05) differences; also recorded: no differences in activity measurements
Effect on PWL in normal animals (normal rats): no effect; also recorded: not affected
Linear pharmacokinetic correlation, slope [1]: 1.0
Cmax plasma concentration ([2]; hairless guinea pigs dosed once with 6.2 mg/d CBD gel, n=3): 45.8 ± 8.4 ng/mL
Cmax plasma concentration ([2]; hairless guinea pigs, 6.2 mg/d CBD gel, after 3 consecutive days of gel application, n=5): 85.6 ± 48.4 ng/mL
Time out to which CBD plasma concentrations were detected ([2]; hairless guinea pigs, after a single initial gel application): 120 h
Tmax ([2]; hairless guinea pigs, multiple applications): 40.0 ± 14.5 h
Tmax ([2]; hairless guinea pigs, single application): 6.7 ± 2.1 h
Differences in knee joint temperature among the treatment groups ([3]; 0.6 to 62.3 mg/d CBD versus vehicle gel, p>0.05): no significant differences
Knee joint temperature ([3]; 0.6 mg/d): 31.2 ± 0.7^b ° C.
Knee joint temperature ([3]; 3.1 mg/d): 30.6 ± 0.6^b ° C.
Knee joint temperature ([3]; 6.2 mg/d): 31.7 ± 2.1^b ° C.
Knee joint temperature ([3]; 62.3 mg/d): 30.2 ± 0.9^a ° C.
Binding affinity for CB2 (CB2): little binding affinity
PWL scores, improvement ([4]; 0.6 mg/d and 3.1 mg/d, day 4): did not have improved PWL scores
PWL, improvement compared to CFA rats receiving vehicle gel ([4]; 6.2 mg/d, 4 h (d 1) post CBD dosing, p<0.05): improvement
Residual drug remaining on the skin surface [5]: approximately 15%
Knee joint circumference ([6]; 0.6 mg/d CBD gel on skin): 7.0 ± 0.3^b cm
Knee joint circumference ([6]; 3.1 mg/d CBD gel on skin): 7.1 ± 0.3^b cm
Knee joint circumference ([6]; 6.2 mg/d CBD gel on skin): 6.6±0.2 cm and 6.6 ± 0.2^b* cm
Knee joint circumference ([6]; 62.3 mg/d CBD gel on skin): 6.6±0.1 cm and 6.6 ± 0.1^a* cm
